Source: US7759302B2, “Peptidic sulfonamides” (Merck Patent GmbH, priority 2003, dated 2010)

Molecular target: αvβ6 integrin (Homo sapiens, UniProt P06756+P18564)
Experiment: Influence of soluble substances on the binding of biotinylated fibronectin to immobilised αvβ6 (ELISA-type competition binding test)
Conditions: competition with biotinylated fibronectin at immobilised αvβ6; standard employed in each experiment
Protocol: The prepared peptides according to the invention together with competing fibronectin were bound in solution to the immobilised αvβ6 receptor, and the Q value as a measure of the selectivity of the binding of the peptide to be tested to αvβ6 was determined. The Q value is calculated from the quotient of the IC50 values of test peptide and a standard. The standard used was the linear Ac-RTDLDSLR-NH2(SEQ ID NO: 22) (WO01/00660; Pytela et al., 1986, Science 231, 1559). The binding test was carried out in detail as follows:
αvβ6 was immobilised on microtitre plates by dilution of the protein solution in TBS++ and subsequent incubation overnight at 4° C. (100 μl/well). Non-specific binding sites were blocked by incubation (2 h; 37° C.) with 3% (w/v) BSA in TBS++ (200 μl/well). Excess BSA was removed by washing three times with TBSA++. […]
Unbound fibronectin and peptides were removed by washing three times with TBSA++. The bound fibronectin was detected by incubation (1 h; 37° C.) with an alkaline phosphatase-coupled antibiotin antibody (1:20000 in TBSA++; 100 μl/well). […] The colour intensity was determined at 405 nm in the ELISA measuring instrument and adjusted against a blank value. […]
IC50 values for the peptides tested were read off from a graph, and the Q value of the peptide was determined therefrom together with the IC50 of the standard.

IC50: < 100 nM
Substance: Ac-RTDLDSLR-NH2 [AC-RTDLDSLR-NH2, Ac-RTDLDSLR-NH2]
